From PubChem BioAssay (NCI)
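Interpolation was linear, between the two tested concentrations surrounding the appropriate level; five concentrations were tested over 48 hours in 96-well plates. Abbreviation: GI50, concentration required for 50% inhibition of growth. Definition used: TGI = concentration required for complete inhibition of growth.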

Assays:
Experiment in all cases: NCI-60 cell line screen, 48 h
[1] = tested on: CAKI-1 renal
[2] = tested on: HOP-62 NSCLC
[3] = tested on: MOLT-4 leukemia
[4] = tested on: OVCAR-4 ovarian
[5] = tested on: T-47D breast
[6] = tested on: HL-60(TB) leukemia
[7] = tested on: SF-295 CNS
[8] = tested on: HT29 colon
[9] = tested on: HS 578T breast
[10] = tested on: A549 NSCLC
[11] = tested on: NCI-H23 lung
[12] = tested on: PC-3 prostate
[13] = tested on: NCI/ADR-RES ovarian
[14] = tested on: COLO 205 colon
[15] = tested on: SF-539 CNS
[16] = tested on: NCI-H226 lung
[17] = tested on: A498 renal
[18] = tested on: EKVX NSCLC
[19] = tested on: MDA-MB-435
[20] = tested on: SW-620 colon
[21] = tested on: MCF7 breast
[22] = tested on: HOP-92 NSCLC
[23] = tested on: M14 melanoma
[24] = tested on: SF-268 CNS
[25] = tested on: MALME-3M melanoma
[26] = tested on: SNB-75 CNS
[27] = tested on: 786-0 renal
[28] = tested on: SK-MEL-2 melanoma
[29] = tested on: OVCAR-5 ovarian

Work on `CCO/C=N/C1=C(C#N)C(c2ccc(Cl)cc2)c2sc3c(C)cccc3c2O1` (stereo not drawn) yielded a GI50 [1] of 532 nM, a TGI [1] of 18500 nM and a GI50 [2] of 574 nM. For the same compound, the TGI [2] was 18600 nM, the GI50 [3] was 808 nM and the TGI [3] was greater than 88900 nM. The GI50 [4] was 1350 nM, the TGI [4] was 19900 nM and the GI50 [5] was 462 nM. The TGI [5] was 29200 nM, the GI50 [6] was 329 nM and the TGI [6] was 13900 nM. For the same compound, the GI50 [7] was 288 nM, the TGI [7] was 2470 nM and the GI50 [8] was 967 nM. For the same compound, the TGI [8] was 11900 nM, the GI50 [9] was 414 nM and the TGI [9] was 11500 nM. The GI50 [10] was 749 nM, the TGI [10] was 15100 nM and the GI50 [11] was 1330 nM. It also gave a TGI [11] of 19200 nM, a GI50 [12] of 377 nM and a TGI [12] of 12100 nM. The GI50 [13] was 438 nM, the TGI [13] was 13400 nM and the GI50 [14] was 1990 nM. The TGI [14] was 6930 nM, the GI50 [15] was 379 nM and the TGI [15] was 1810 nM. The GI50 [16] was 1150 nM, the TGI [16] was 15400 nM and the GI50 [17] was 315 nM. It also gave a TGI [17] of 1480 nM, a GI50 [18] of 604 nM and a TGI [18] of 15600 nM. For the same compound, the GI50 [19] was 214 nM, the TGI [19] was 516 nM and the GI50 [20] was 451 nM. For the same compound, the TGI [20] was 15800 nM, the GI50 [21] was 327 nM and the TGI [21] was 11600 nM. The GI50 [22] was 188 nM, the TGI [22] was 3760 nM and the GI50 [23] was 528 nM. It also gave a TGI [23] of 11900 nM, a GI50 [24] of 1490 nM and a TGI [24] of 19400 nM. For the same compound, the GI50 [25] was 689 nM, the TGI [25] was 23400 nM and the GI50 [26] was 234 nM. The TGI [26] was 1410 nM, the GI50 [27] was 976 nM and the TGI [27] was 13900 nM. It also gave a GI50 [28] of 1060 nM, a TGI [28] of 20800 nM and a GI50 [29] of 2370 nM. It also gave a TGI [29] of 15500 nM.
